For one experiment, the system named is ARH77. Kind of experiment: Anti-cancer action: number of viable cells (ATPlite) after 96 hours of culture. Format: cell-based. The conditions noted are these: ARH77 human multiple myeloma cell line. As for the experimental part: (§1) Specifically, OHBFB was added to a medium of various cancer cell lines and the number of viable cells was measured. For comparison, the anti-cancer action of epigallocatechin gallate (hereinafter sometimes referred to as “EGCG”) was also studied similarly.
(§2) Examples of the cancer cell lines include U266 which is a human multiple myeloma cell line, ARH77 which is a human multiple myeloma cell line, RPMI8226 which is a human multiple myeloma cell line, Mec-1 which is a human chronic lymphocytic leukemia cell line, HL60 which is a human acute myeloid leukemia cell line, Kasumi-1 which is a human acute myeloid leukemia cell line, and KU812 which is human chronic myeloid leukemia cell line were used.
(§3) As each of the cancer cell lines, a cell line obtained by subculturing the cells under the conditions of 37° C. and 5% CO2 saturated with water vapor using an RPMI 1640 medium supplemented with a 10% fetal calf serum (FCS), and culturing and maintaining the cells in a logarithmic growth phase.
(§4) EGCG (manufactured by Sigma-Aldrich) was dissolved in ultrapure water to 5 mM, stored at −30° C., and appropriately thawed before use. OHBFB (manufactured by Nagara Bioscience) was dissolved in ultrapure water to 5 mM, stored at −30° C., and appropriately thawed before use.
(§5) Each of the cancer cell lines was suspended in an RPMI 1640 medium supplemented with a 1% FCS, superoxide dismutase (SOD) (5 U/mL), and a catalase (200 U/mL) to 5×10^4 cells/mL, the suspension was seeded at 100 μL/well in a 96-well plate, OHBFB or EGCG at a final concentration of 0, 5, 10, or 25 μM was added thereto, and the cells were cultured for 96 hours. Thereafter, the number of viable cells was measured using a commercially available kit (trade name “ATPlite,” PerkinElmer).

A further experiment concerns KU812. The experiment is described as above. The conditions noted are these: KU812 human chronic myeloid leukemia cell line. Format: cell-based. As to the method: as §1, §2, §3, §4, §5
In another experiment the test system is Mec-1. The description is as above. The conditions noted are these: Mec-1 human chronic lymphocytic leukemia cell line. Format: cell-based. As for the experimental part:
as §1, §2, §3, §4, §5

The next experiment concerns RPMI8226. The experiment is described as above. The conditions noted are these: RPMI8226 human multiple myeloma cell line. Format: cell-based. As to the method: as §1, §2, §3, §4, §5
For experiment [1], the system named is U266. The experiment is described as above. The conditions noted are these: U266 human multiple myeloma cell line. Format: cell-based. As for the experimental part:
as §1, §2, §3, §4, §5

A further experiment concerns HL60. The description is as above. The conditions noted are these: HL60 human acute myeloid leukemia cell line. Format: cell-based.
A further experiment relates to Kasumi-1. The experiment is described as above. Format: cell-based. The conditions noted are these: Kasumi-1 human acute myeloid leukemia cell line.
The subject of experiment [2] is U266. The experiment can be described thus: Anti-cancer activity enhancing action by PDE5 inhibitor vardenafil (ATPlite cell viability, isobologram analysis). The format is cell-based. The conditions noted are these: Homo sapiens, U-266, 96 h, read-out: IC50 of vardenafil alone. Background: In ATP-based viability assays light output follows the ATP content of the culture.
Protocol: Specifically, a human multiple myeloma cell line U266 was suspended in an RPMI 1640 medium supplemented with 1% FCS, SOD (5 U/mL), and a catalase (200 U/mL) to 5×10^4 cells/mL, and the suspension was seeded at 100 μL per well in a 96-well plate.
Subsequently, vardenafil (manufactured by Cayman Chemical Co.) which is a PDE5 inhibitor was added to a final concentration of 5 μM and the mixture was incubated for 3 hours. […] Thereafter, the cell viability was measured using a commercially available kit (trade name “ATPlite,” PerkinElmer).
In addition, the same studies as described above were performed in the presence of vardenafil alone at final concentrations of 0, 5, 10, 25, 50, and 100 μM.

Experiment [3] has as its system U266. The experiment can be described thus: Anti-cancer activity enhancing action by flavanone (ATPlite cell viability). The conditions noted are these: U266, flavanone 5 μM with OHBFB 2.5 μM, 96 hours. The format is cell-based, human. As to the method: Specifically, U266 which is a human multiple myeloma cell line was suspended in an RPMI 1640 medium supplemented with 1% FCS, SOD (5 U/mL), and a catalase (200 U/mL) to 5×10^4 cells/mL, and the suspension was seeded at 100 μL per well in a 96-well plate. […] As a control, a sample to which the same volume of PBS had been added instead of flavanone was used. As the flavanone, eriodictyol (manufactured by Extrasynthese Corp.), naringenin (manufactured by Tokyo Chemical Industry Co., Ltd.), and hesperetin (manufactured by Wako Pure Chemical Industries, Ltd.) were used. Subsequently, the cell viability was measured using a commercially available kit (trade name “ATPlite,” PerkinElmer).

In experiment [4] the test system is U266. Kind of experiment: Anti-cancer activity enhancing action by eriodictyol (ATPlite cell viability, isobologram analysis). The format is cell-based, human.

For `O=C(O[C@@H]1Cc2c(O)cc(O)cc2O[C@@H]1c1cc(O)c(O)c(O)c1)c1cc(O)c(O)c(O)c1` [EGCG, epigallocatechin gallate], the IC50 with ARH77 stood at 4 µM; with KU812, 6.2 µM; in the experiment on Mec-1 it was 8.3 µM; in the experiment on RPMI8226 it was 11.1 µM; in the experiment on U266 [1], 11.8 µM; in the experiment with HL60 it was 9.5 µM. This molecule returned an IC50 with Kasumi-1 of 9.6 µM.
Regarding `CCCc1nc(C)c2c(=O)[nH]c(-c3cc(S(=O)(=O)N4CCN(CC)CC4)ccc3OCC)nn12` [vardenafil], in the experiment with U266 [2], the IC50 worked out at 92.7 µM.
As to `COc1ccc([C@@H]2CC(=O)c3c(O)cc(O)cc3O2)cc1O` [hesperetin], the “cell viability: enhancement of OHBFB anti-cancer activity by flavanone” value (from here on “cell viability: enhancement”) in the experiment on U266 [3] was “enhance the anti-cancer activity of OHBFB”.
Take `O=C1C[C@@H](c2ccc(O)c(O)c2)Oc2cc(O)cc(O)c21` [eriodictyol]: the IC50 in the experiment on U266 [4] (Homo sapiens, U-266, 96 h, read-out: IC50 of eriodictyol alone) worked out at 89.4 µM. Moreover, the “combined use of OHBFB and eriodictyol (isobologram analysis)” value in the experiment with U266 [4] (U266, isobologram) is “synergistically enhances the anti-cancer activity of OHBFB”. Further, in the experiment on U266 [3], the “cell viability: enhancement” value is “enhance the anti-cancer activity of OHBFB”.
With `O=C1C[C@@H](c2ccc(O)cc2)Oc2cc(O)cc(O)c21` [naringenin], in the experiment with U266 [3], the “cell viability: enhancement” value was “enhance the anti-cancer activity of OHBFB”.

Broadly, the IC50 is the concentration that inhibits the measured activity by half.
